Legend:
DLD-1 = experiment: Antiproliferative activity against human DLD-1 cells assessed as inhibition of cell growth incubated for 72 hrs by MTS assay; format: functional, cell-based; details: DLD-1, 72 h
HT-1080 = experiment: Cytotoxicity against human HT-1080 cells assessed as reduction in cell viability incubated for 48 hrs by MTT assay; format: functional, cell-based; details: HT-1080, 48 h
GTPase KRas [1] = biological target: GTPase KRas (Homo sapiens, UniProt P01116, G12D); experiment: Binding affinity to KRAS G12D mutant (unknown origin) assessed as dissociation constant by SPR analysis
GTPase KRas [2] = biological target: GTPase KRas (Homo sapiens, UniProt P01116, G12C); experiment: Inhibition of KRAS G12C mutant in human NCI-H358 cells incubated for 24 hrs by Western blot analysis; format: cell-based
NCI-H358 = experiment: Antiproliferative activity against human NCI-H358 cells assessed as reduction in cell viability; format: functional, cell-based
MIA PaCa-2 = experiment: Antiproliferative activity against human MIA PaCa-2 cells assessed as reduction in cell viability; format: functional, cell-based

Chain of GTPase KRas (Homo sapiens, UniProt P01116, G12C) (P01116 whole entry G12C): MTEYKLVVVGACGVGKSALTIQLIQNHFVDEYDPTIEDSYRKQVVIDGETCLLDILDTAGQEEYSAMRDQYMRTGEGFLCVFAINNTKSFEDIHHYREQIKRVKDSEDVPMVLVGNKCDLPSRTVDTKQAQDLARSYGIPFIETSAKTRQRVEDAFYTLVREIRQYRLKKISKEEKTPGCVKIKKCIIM
Chain of GTPase KRas (Homo sapiens, UniProt P01116, G12D) (P01116 whole entry G12D): as the sequence (P01116 whole entry G12C) above, with C12D counted along it

`COc1nc(-c2cccc3c2OCCO3)ccc1Nc1ccc(CN(C)C)cc1` showed an IC50 (DLD-1) of 8000 nM, an IC50 (HT-1080) of 10000 nM and a Kd (GTPase KRas [1]) of 51 nM.

Work on `NC1(C(=O)NCCCn2cc(-c3ccc(OC(F)(F)F)cc3)c3cc(CN4CCN(Cc5c(Cl)cccc5Cl)CC4)ccc32)CCNCC1` yielded an IC50 (GTPase KRas [2]) of 1000 nM.

`C=CC(=O)N1CCN2C(=O)Cc3cc(F)c(-c4ccc(F)c5sc(N)c(C#N)c45)c(Cl)c3OCC2C1` (stereo not drawn) gave an IC50 (GTPase KRas [2]) of 3.35 nM.

Work on `C=CC(=O)N1CC2(CC(n3nc(-c4ccc5c(cnn5C)c4)c(-c4c(Cl)c(C)cc5[nH]ncc45)c3C)C2)C1` [OPNURASIB] yielded an IC50 (NCI-H358) of 18 nM and an IC50 (GTPase KRas [2]) of 10 nM.

In the case of `C=CC(=O)N1CCN(c2nc(=O)n(-c3c(C)ccnc3C(C)C)c3nc(-c4c(O)cccc4F)c(F)cc23)[C@@H](C)C1` [SOTORASIB], the IC50 (MIA PaCa-2) is reported as 100 nM.

— ChEMBL document CHEMBL6078623, “Structural insights into small-molecule KRAS inhibitors for targeting KRAS mutant cancers” (Eur J Med Chem, 2024)
